What was measured:
[1] = general statement, no test described; cited from earlier work
[2] = general statement, no test described; cited from earlier work; remark: listed apart in the source
[3] = Herbicide comparative solubility: saflufenacil dissolved in each solvent; assay type: physicochemical; details: room temperature; vials of 20, 30, 40 and 50 wt. % saflufenacil
Protocol: (§1) The solubility of the herbicide saflufenacil was determined for thirteen solvents. Three of the solvents were caprolactam-derived solvents in accordance with this disclosure. The remaining ten were comparative solvents. The solubility of saflufenacil was evaluated for each solvent by preparing four, 2 ml vials containing 20 wt. %, 30 wt. %, 40 wt. % and 50 wt. % of saflufenacil. To prepare the 20 wt. % vial, 0.040 g of saflufenacil was added to 0.160 ml of solvent. To prepare the 30 wt. % vial, 0.060 g of saflufenacil was added to 0.140 ml of solvent. To prepare the 40 wt. % vial, […] of saflufenacil was added to 0.120 ml of solvent. To prepare the 50 wt. % vial, 0.100 g of saflufenacil was added to 0.100 ml of solvent. The vials were capped and swirled at room temperature until no change in solubility was observed. […] Solvents 1-3 are in accordance with the present disclosure. Solvents 4-13 are comparative solvents.

[4] = Insecticide comparative solubility: bifenthrin dissolved in each solvent; assay type: physicochemical; details: room temperature; vials of 20, 30, 40 and 50 wt. % bifenthrin
[5] = Fungicide comparative solubility: tebuconazole dissolved in each solvent; assay type: physicochemical; details: room temperature; vials of 20, 30, 40 and 50 wt. % tebuconazole
Protocol: as §1, with “observed. Test samples including the fungicide tebuconazole were prepared as described above for Example 1 for saflufenacil.” for “observed.”, “As in Table 1 above, solvents” for “Solvents”, “disclosure and solvents” for “disclosure. Solvents”

[6] = Hansen Solubility Parameters of solvents; assay type: physicochemical
Description: As is known in the art, Hansen Solubility Parameters can be used to predict the effectiveness of a solvent. […] Thus, one skilled in the art would not expect the caprolactam-derived solvents to be as effective as NMP and other commonly used solvents.

Compound | maximum weight percentage of saflufenacil dissolved in each solvent [3] [%] | maximum weight percentage of bifenthrin dissolved in each solvent [4] [%] | maximum weight percentage of tebuconazole dissolved in each solvent [5] [%] | also measured
CN1CCCCCC1=O [Solvent 1, N-methylcaprolactam] | – | – | – | carcinogen [1]: not considered to be either a reproductive toxin or a carcinogen; reproductive toxin [2]: not considered to be either a reproductive toxin or a carcinogen
CN1CCCCCC1=O [Solvent 1] | 40 | 40 | 50 | –
CCN1CCCCCC1=O [Solvent 2] | 30 | 50 | 50 | –
CCCCN1CCCCCC1=O [Solvent 3] | 20 | 40 | 40 | –
CN1CCCC1=O [Solvent 4, N-methyl-2-pyrrolidone] | – | – | – | reproductive toxin [2]: has been found to be a reproductive toxin
CN1CCCC1=O [Solvent 4] | 50 | 50 | 50 | –
CCCCN1CCCC1=O [Solvent 5] | 30 | 50 | 40 | –
CCCCCCCCCC(=O)N(C)C [Solvent 6] | 30 | 30 | 30 | –
COC(=O)CCCCC(=O)N(C)C [Solvent 7, N,N-dimethyladipamide methyl ester] | – | – | – | Hansen Solubility Parameters: Dispersion [6]: 17.2; Hansen Solubility Parameters: Hydrogen Bonding [6]: 9.3; Hansen Solubility Parameters: Polarity [6]: 9.7
O=C1CCCCC1 [Solvent 9] | <20 | 50 | 40 | –
N#CCCN1CCCCCC1=O [Solvent 13] | <20 | <20 | <20 | –
O=C1CCCCCN1 [caprolactam] | – | – | – | carcinogen [1]: has not been found to be, and is not expected to be, either a reproductive toxin or a carcinogen; reproductive toxin [2]: has not been found to be, and is not expected to be, either a reproductive toxin or a carcinogen
CC1=CC(=O)CC(C)(C)C1 [isophorone] | – | – | – | carcinogen [1]: suspected carcinogen
